# Data as given in patent US10555919B2, “Melatonin in autoimmune disease” (The Brigham and Women's Hopsital, Inc., priority 2014, dated 2020).
# Columns and labels:
# [1] = test system: nr1d1 reporter-transfected HEK293 cells; assay: nr1d1 promoter luciferase reporter assay; assay type: cell-based; conditions: nr1d1 promoter controls luciferase expression
# Text: The IL-10 promoter reporter and C-Maf and AhR vectors were previously described (Apetoh et al., 2010), vector expressing ROR-α were purchased from PlasmID at Harvard Medical School. Vectors coding for C/EBPα (44627) and Bmal reporter (46824) were purchased from Addgene. The retrovirus used for nfil3 overexpression in T cells was graciously provided by Laura Hooper (UT Southwestern, TX, USA). The retrovirus used for nr1d1 overexpression in T cells was graciously provided by Bart Staels (Institut Pasteur, Lille, France, […]). The nr1d1 promoter reporter was graciously provide by Vincent Laudent (Ecole Normale Supérieure, Lyon, France).
# HEK293 cells were grown in DMEM supplemented with 10% FBS and were transfected with FuGENE HD transfection reagent and 2 μg of each plasmids according the manufacturer's instructions (Roche). Firefly and renilla luciferase activity was analyzed 48 h after transfection and 24 h after treatment with a Dual Luciferase Assay kit (Promega).
# CD4+ T cells = assay: Th17 differentiation in vivo in RAG-1 deficient mice reconstituted with CD4+ T cells and immunized with MOG35-55 in CFA; conditions: melatonin 5 mg/kg
# Text: Sorted splenic CD4+ T cells from C57BL/6, MTNR1A-, REV-ERBα and NFIL3-deficient mice were transferred i.p. (10×10^6 cells per mouse) into RAG-1 deficient mice. Ten days after transfer, mice were checked for reconstitution of CD4+ T cells and immunized with MOG35-55 in CFA. Twenty days after immunization, T cells were isolated and stained for cytokines.
smiles,measurement,setting,value
"COc1ccc2[nH]cc(CCNC(C)=O)c2c1 [Melatonin, N-Acetyl-5-methoxytryptamine]",luciferase activity,[1],decreased
same,Th17 cell differentiation in vivo,"CD4+ T cells; mice reconstituted with MTNR1A-, REV-ERBα or NFIL3-deficient T cells",increased
same,Th17 cell differentiation in vivo,CD4+ T cells; mice reconstituted with wild type CD4+ T cells,suppression
